Measurements taken from US20240416143A1, “PHOTONIC ANTIMICROBIAL WOUND SURFACE DRESSING” (The General Hospital Corporation, priority 2021, published 2024).
Like-named read-outs stand apart in the source and are kept apart here.

How the values were obtained:
[1] = Solubility of menadione in aqueous solution; type: physicochemical
Method: Thus, we dissolved the menadione in two conditions: in PBS containing either 1% DMSO or 1% DMSO/Tween80 at 400 μM. Tween 80 is a surfactant and the idea is to mix with the DMSO before to add to PBS is due to necessity to improve the solubility of menadione in aqueous solution. We measured the absorption spectrum in both conditions to analyze if there is any change in optical properties. The range of wavelength absorption of menadione was measured between 200-800 nm (see FIG. 12B) to choose the optimum wavelength of the light absorption spectra. […] The maximum wavelength of absorption found was 340 nm for both conditions. […] The molar absorptivity coefficient was compared in different wavelength according with the Table 1.

E. coli = experiment: MIC of menadione by broth microdilution, with or without aBL; type: cell-based, Escherichia coli ATCC 25922
Method: The MICs of menadione in different bacterial strains were determined by a standard broth microdilution assay according to the Clinical and Laboratory Standards Institute. Briefly, menadione was prepared at 100 mg/mL in Tween 80/DMSO (1:1) as a stock solution. The stock solution was diluted to 2048 μg/mL in BHI and then serial dilutions were performed to 1024-0.015 μg/mL in a 96-well plate. Then, a 10 μL stationary growth-phase culture of 10^8 CFU/mL bacteria in BHI broth was added to the 96-well plate containing the serial dilutions of menadione. The medium containing a similar amount of Tween 80/DMSO (1:1) served as a control. The microplates were incubated at 37° C. for 24 hours and the lowest concentration of the compound capable of completely inhibiting bacterial growth was referred to as the MIC.
However, we investigated the effects of aBL (50 mW/cm^2) in potentiating the antibacterial activities of menadione in the three strains of bacteria. […] The highest fluence that we investigated was 125 J/cm^2, when we irradiated the bacteria for 42 minutes.

[2] = system: P. aeruginosa biofilms in porcine explants; experiment: Photoinactivation of biofilms in ex vivo porcine partial thickness wounds by menadione + aBL; type: cell-based, Pseudomonas aeruginosa
Method: Skin was handled and sanitized with 70% isopropanol solution after hair shaving. The explants and inner wounds were created using a 12 mm and 4 mm biopsy punches respectively. The explants were placed in 12 wells plates using a (8 μm pore) inserts (Corning™ Falcon™). 1 mL of DMEM media was added to each well in the plate before the insert. After 24 hours, the inner wounds in the explants were inoculated with 20 μL of 10^8 CFU/mL of bacterial solution. After that, the explants were incubated at 37° C. and 5% CO2 for 48 hours to ensure the growth of a mature bacterial biofilm. The inner wounds of the explants were replenished daily with fresh BHI media to ensure that the wounds are hydrated.
48 hours following the inoculation, mature monobacterial biofilms of MRSA, P. aeruginosa, and E. coli were obtained with 8.00 log10 CFU/g per wound bed on each explant. MRSA biofilms in explant were reduced by 0.81 log10 CFU/g after the treatment of just aBL 250 J/cm^2 (50 mW/cm^2). However, MRSA biofilms in ex-vivo porcine skin were reduced by up to 4.18 log10 CFU/g when treated with aBL combined with menadione (200 μg/mL). For MRSA biofilms, the log reduction of mature monobacterial biofilm increased as the menadione concentration increased (see FIGS. 16A-16B). […]

[3] = ROS probes (DCF-DA, SOSG, HPF) in the absence of bacteria
Method: 1.2.9.1 General ROS measured by […] (DCFH-DA) assay: DCF-DA was purchased from Thermofisher. […] The production of ROS by menadione when combined with blue light was measured in the presence and absence of bacteria. The bacteria (MRSA) was grown in BHI broth medium with shaking overnight. Cells were collected by centrifugation at 4,000 rpm for 5 minutes and resuspended in PBS in the stationary growth phase culture of 1×10^8 CFU/mL. The microbial suspension was transferred to a 35×12-mm dish, mixed with 10 μg/mL of menadione, and stained with 10 μM DCFH-DA solution per the manufacturer's instruction. The solutions (with and without bacteria) were irradiated with the blue light at 50 mW/cm^2 and the samples were collected every 15 minutes to be analyzed by Microplate Spectrofluorometer (SPECTRAmax®, Molecular Devices, USA) at λex=495 nm and λem=525 nm. The control and the menadione/dark groups were generated under the same conditions without irradiation.
To do so, the production of ROS by menadione combined with blue light was measured by different ROS probes, DCF-DA, SOSG and HPF, in the presence and absence of MRSA. […] Oxidation of these probes can be detected by monitoring the increasing of fluorescence signals. […]

S. aureus MN8 = S. aureus MN8 cultured aerobically vs anaerobically; cited from earlier work

## CC1=CC(=O)c2ccccc2C1=O [menadione, 2-methyl-1,4-naphthoquinone]
[1]; PBS with 1% DMSO/Tween80 vs 1% DMSO
  solubility in aqueous solution: best solubility
[1]; water
  solubility in water: not soluble in water
E. coli; Escherichia coli, light or radiation study, 5 min, aBL 15.62 J/cm^2 (5 mins.), 50 mW/cm^2, read-out: MIC
  MIC: 256 µg/mL
E. coli; Escherichia coli, light or radiation study, 0.175 h, aBL 31.25 J/cm^2 (10.5 mins.), 50 mW/cm^2, read-out: MIC
  MIC: 256 µg/mL
E. coli; Escherichia coli, light or radiation study, 0.35 h, aBL 62.5 J/cm^2 (21 mins.), 50 mW/cm^2, read-out: MIC
  MIC: 4 µg/mL
E. coli; Escherichia coli, light or radiation study, 0 J/cm^2 (Dark), read-out: MIC
  MIC: 512 µg/mL
E. coli; aBL 125 J/cm^2 (42 mins.), 50 mW/cm^2
  MIC: completely eradicated
[2]; 50 μg/mL menadione + blue light
  biofilm reduction by menadione and blue light: 5.27 log10 CFU/mL
[2]; no aBL
  biofilm reduction by menadione in the absence of aBL: no effect of biofilm reduction
[3]; 405 nm, DCF-DA, SOSG, HPF
  fluorescence signal of ROS probes, menadione exposed to blue light: higher fluorescence signal
[3]; no irradiation
  fluorescence signal of ROS probes, menadione dark group: negligible
S. aureus MN8
  bactericidal activity, aerobic vs anaerobic culture: 4 fold
